Experimental data taken from the supplement of paper PMC10307832.

Legend:
Experiment in all cases: relative viability (nuclei count vs DMSO), 5 days (fraction); higher = more cells survive
Mirin + Alpelisib = compound: N=C1NC(=O)/C(=C/c2ccc(O)cc2)S1 [Mirin] + Cc1nc(NC(=O)N2CCC[C@H]2C(N)=O)sc1-c1ccnc(C(C)(C)C(F)(F)F)c1 [Alpelisib] (partner 2 µM)
Outline: (§1)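 Relative viability is defined as nuclei in treated wells over nuclei in vehicle wells. Duplicate plates were run and medians reported. Lung cancer cell lines in 1536-well plates were dosed by pin tool one day after seeding, with one drug or with a fixed anchor-drug dose plus five library-drug doses (not always all listed) in √10 steps, and nuclei were counted after 5 days.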

Mirin + OSI-027 = compound: N=C1NC(=O)/C(=C/c2ccc(O)cc2)S1 [Mirin] + COc1cccc2cc(-c3nc([C@H]4CC[C@H](C(=O)O)CC4)n4ncnc(N)c34)[nH]c12 [OSI-027] (partner 0.5 µM)
Outline: as §1

Mirin + Crizotinib = compound: N=C1NC(=O)/C(=C/c2ccc(O)cc2)S1 [Mirin] + C[C@@H](Oc1cc(-c2cnn(C3CCNCC3)c2)cnc1N)c1c(Cl)ccc(F)c1Cl [Crizotinib] (partner 1 µM)
Outline: as §1

Mirin + Foretinib = compound: N=C1NC(=O)/C(=C/c2ccc(O)cc2)S1 [Mirin] + COc1cc2c(Oc3ccc(NC(=O)C4(C(=O)Nc5ccc(F)cc5)CC4)cc3F)ccnc2cc1OCCCN1CCOCC1 [Foretinib] (partner 0.25 µM)
Outline: as §1

| Cell Line | relative viability (Mirin + Alpelisib; first compound 0.25 µM) | relative viability (Mirin + Alpelisib; first compound 0.7906 µM) | relative viability (Mirin + Alpelisib; first compound 2.5 µM) | relative viability (Mirin + Alpelisib; first compound 7.906 µM) | relative viability (Mirin + Alpelisib; first compound 25 µM) | relative viability (Mirin + OSI-027; first compound 0.25 µM) | relative viability (Mirin + OSI-027; first compound 0.7906 µM) | relative viability (Mirin + OSI-027; first compound 2.5 µM) | relative viability (Mirin + OSI-027; first compound 7.906 µM) | relative viability (Mirin + OSI-027; first compound 25 µM) | relative viability (Mirin + Crizotinib; first compound 0.7906 µM) | relative viability (Mirin + Crizotinib; first compound 2.5 µM) | relative viability (Mirin + Crizotinib; first compound 25 µM) | relative viability (Mirin + Foretinib; first compound 0.25 µM) | relative viability (Mirin + Foretinib; first compound 0.7906 µM) | relative viability (Mirin + Foretinib; first compound 2.5 µM) | relative viability (Mirin + Foretinib; first compound 7.906 µM) | relative viability (Mirin + Foretinib; first compound 25 µM) | relative viability (Mirin + Crizotinib; first compound 0.25 µM) | relative viability (Mirin + Crizotinib; first compound 7.906 µM) |
| --- | --- | --- | --- | --- | --- | --- | --- | --- | --- | --- | --- | --- | --- | --- | --- | --- | --- | --- | --- | --- |
| NCI-H661 | 0.657 | 0.554 | 0.612 | 0.323 | 0.602 | 0.755 | 0.893 | 0.702 | 0.62 | 0.606 | 1.01 | 0.861 | 1.17 | 1.05 | 1.06 | 1.02 | 1.07 | 0.975 | – | – |
| NCI-H727 | 0.699 | 0.7 | 0.692 | 0.761 | 0.54 | 0.833 | 0.596 | 0.529 | 0.586 | 0.877 | 0.98 | 0.799 | 0.659 | 0.9 | 0.889 | 1.18 | 1.14 | 1.12 | 1.1 | 1.04 |
| NCI-H838 | 0.966 | 1 | 0.961 | 1.03 | 0.965 | 0.394 | 0.394 | 0.414 | 0.374 | 0.406 | 0.918 | 0.834 | 0.681 | 1.05 | 1.08 | 1.08 | 1 | 0.852 | 0.895 | 0.906 |
| NCI-H1355 | 0.858 | 0.864 | 0.754 | 0.915 | 0.727 | 0.411 | 0.376 | 0.379 | 0.406 | 0.424 | 1.18 | 1.02 | 1.1 | 0.67 | 1 | 0.967 | 0.971 | 0.918 | 1.07 | 1.04 |
| NCI-H1437 | 0.979 | 0.884 | 0.832 | 0.705 | 0.474 | 0.853 | 0.895 | 0.948 | 0.832 | 0.643 | 0.936 | 0.744 | 0.774 | 1.31 | 1.31 | 1.22 | 1.2 | 1.19 | 0.9 | 0.898 |
| NCI-H1563 | 0.918 | 0.958 | 0.92 | 0.937 | 0.833 | 0.697 | 0.816 | 0.744 | 0.731 | 0.648 | 0.836 | 0.837 | 0.888 | 0.962 | 0.974 | 0.865 | 1.03 | 0.875 | 0.914 | 0.96 |
| NCI-H1651 | 1.03 | 1.05 | 1.03 | 0.916 | 0.785 | 0.782 | 0.701 | 0.877 | 0.549 | 0.662 | 0.875 | 0.849 | 0.821 | 0.814 | 0.845 | 0.773 | 0.678 | 0.69 | 0.827 | 0.877 |
| NCI-H1666 | 0.869 | 1.01 | 0.884 | 0.826 | 0.528 | 0.795 | 0.949 | 0.806 | 0.79 | 0.682 | 1.02 | 1.03 | 0.66 | 0.963 | 1.03 | 1.04 | 0.941 | 0.836 | 0.918 | 0.852 |
